Reference: patent publication US9403835B2, “Tetraaza-cyclopenta[a]indenyl and their use as positive allosteric modulators” (Merck Patent GmbH, priority 2011, dated 2016)

Assays:
muscarinic M1 receptor = target: T1, muscarinic M1 receptor (Homo sapiens, UniProt P11229); assay: M1 PAM Assay (IP-One HTRF, IP1 in M1-CHO cells with EC20 of acetylcholine); format: cell-based; settings: 1 hour at room temperature, IP1 readout
T1 construct: expressed in transfected cells; host or cells: CHO (M1-CHO cells)
T1 sequence (P11229 1-460): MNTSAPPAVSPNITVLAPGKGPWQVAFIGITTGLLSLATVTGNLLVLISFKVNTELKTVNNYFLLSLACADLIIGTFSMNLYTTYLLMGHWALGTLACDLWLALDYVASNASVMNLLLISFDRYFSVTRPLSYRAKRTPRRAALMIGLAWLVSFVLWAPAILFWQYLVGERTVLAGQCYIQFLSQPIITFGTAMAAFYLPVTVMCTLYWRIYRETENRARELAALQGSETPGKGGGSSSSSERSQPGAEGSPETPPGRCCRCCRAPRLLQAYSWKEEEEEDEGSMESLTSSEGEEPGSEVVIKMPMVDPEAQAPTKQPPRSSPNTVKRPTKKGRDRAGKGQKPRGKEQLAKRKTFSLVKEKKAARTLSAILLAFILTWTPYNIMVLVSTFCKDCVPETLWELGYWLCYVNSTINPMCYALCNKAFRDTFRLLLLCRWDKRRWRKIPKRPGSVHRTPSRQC
Description: M1-CHO cells are plated in culture medium (HAM's F12, P/S, 10% FCS) on the day before the experiment with 10 000 cells/well in a 384 well plate (3750 Corning White 384 w plate with lid). On the day of experiment, cells are washed with PBS and IPone buffer is added (glucose 5.5 mM, NaCl 146 mM, MgCl2 0.5 mM, HEPES 10 mM, LiCl 50 mM, CaCl2 1 mM, KCl 4.2 mM). Then diluted compounds (1% DMSO final concentration) are added together with EC20 of acetylcholine and incubated with the cells for 1 hour at room temperature. The intracellular concentration of IP1 is then measured using the IP-One HTRF assay from Cisbio.

| Compound | EC50 (muscarinic M1 receptor) [nM] | melting point [°C] |
| --- | --- | --- |
| CSCCOc1ccccc1C(=O)N1Cc2nn3c(C)c(Cl)c(C)nc3c2C1 [Example 15, (6-chloro-5,7-dimethyl-1H,3H-2,4,7a,8-tetraaza-cyclopenta[a]inden-2-yl)-[2-(2-methylsulfanyl-ethoxy)-phenyl]-methanone] | 200 to 1000 | 183 to 185 |
| COc1c(F)cc(F)cc1C(=O)N1Cc2nn3c(C)c(Cl)c(C)nc3c2C1 [Example 16, (6-chloro-5,7-dimethyl-1H,3H-2,4,7a,8-tetraaza-cyclopenta[a]inden-2-yl)-(3,5-difluoro-2-methoxy-phenyl)-methanone] | 200 to 1000 | 185 to 187 |
| Cc1nc2c3c(nn2c(C)c1C)CN(C(=O)c1ccccc1OCCN(C)C)C3 [Example 22, [2-(2-dimethylamino-ethoxy)-phenyl]-(5,6,7-trimethyl-1H,3H-2,4,7a,8-tetraaza-cyclopenta[a]inden-2-yl)-methanone] | 200 to 1000 | 148 to 150 |
| CCOc1c(F)cc(F)cc1C(=O)N1Cc2nn3c(C)c(Cl)c(C)nc3c2C1 [Example 28, (6-chloro-5,7-dimethyl-1H,3H-2,4,7a,8-tetraaza-cyclopenta[a]inden-2-yl)-(2-ethoxy-3,5-difluoro-phenyl)-methanone] | 1000 to 2000 | 153 to 155 |
| Cc1nc2c3c(nn2c(C)c1Cl)CN(C(=O)c1ccccc1OCC(C)C)C3 [Example 30, (6-Chloro-5,7-dimethyl-1H,3H-2,4,7a,8-tetraaza-cyclopenta[a]inden-2-yl)-(2-isobutoxy-phenyl)-methanone] | 1000 to 2000 | 184 to 187 |
| CC(C)Oc1ccccc1C(=O)N1Cc2nn3cc(Cl)cnc3c2C1 [Example 42, (6-chloro-1H,3H-2,4,7a,8-tetraaza-cyclopenta[a]inden-2-yl)-(2-isopropoxy-phenyl)-methanone] | 1000 to 2000 | 160 to 161 |
| CCOc1ccc(Br)cc1C(=O)N1Cc2nn3c(C)c(C)c(C)nc3c2C1 [Example 45, (5-bromo-2-ethoxy-phenyl)-(5,6,7-trimethyl-1H,3H-2,4,7a,8-tetraaza-cyclopenta[a]inden-2-yl)-methanone] | 1000 to 2000 | 208 to 215 |
